Values quoted from earlier work as cited in US11654127B2, “Composition for use in the prevention and/or treatment of Oncologic Treatment Induced Orogastrointestinal Mucositis” (Mucosa Innovations, S.L., priority 2017, dated 2023).

Test system: OTIOM
Conditions: saliva stimulant

For `CC[C@@H]1C(=O)OC[C@@H]1Cc1cncn1C` [pilocarpine], the “effect in preventing or treating OTIOM” value is given as “no beneficial effect”.
